From ChEMBL document CHEMBL5042539, “Structure-Guided Discovery of the Novel Covalent Allosteric Site and Covalent Inhibitors of Fructose-1,6-Bisphosphate Aldolase to Overcome the Azole Resistance of Candidiasis” (J Med Chem, 2022) come the findings set out here.

Molecules are shown by their SMILES. Values after ≈ are worked out from the molar mass of the structure shown. Active and inactive are the calls of the source. No cut-off for these calls is given here. A value given as a limit tells only on which side of the number the result lay.

The test system of data set [1] is Candida albicans. The data set can be described thus: Antifungal activity against Candida albicans SC5314 incubated for 48 hrs by CLSI based broth microdilution method. Format: functional.
The test system of data set [2] is Candida albicans. In words: Antifungal activity against fluconazole resistant Candida albicans 103 incubated for 48 hrs by CLSI based broth microdilution method. Type of data set: functional.
Data set [3] is described as follows: Cytotoxicity against human HaCaT cells. Format: toxicity, cell-based.
Data set [4] has as its system Candida albicans. In words: Antifungal activity against fluconazole resistant Candida albicans 904 incubated for 48 hrs by CLSI based broth microdilution method. Format: functional. A general note: Dilution methods test growth across graded concentrations, often in twofold steps.
The subject of data set [5] is Candida albicans. In words: Antifungal activity against fluconazole resistant Candida albicans 7781 incubated for 48 hrs by CLSI based broth microdilution method. Type of data set: functional.
A short description of data set [6]: Inhibition of wild type Candida albicans Fructose-1,6-Bisphosphate Aldolase transfected in Escherichia coli BL21 (DE3) incubated for 3 mins in presence of NADH by spectrophotometric analysis.
The test system of data set [7] is Candida albicans. The data set can be described thus: Inhibition of wild type Candida albicans Fructose-1,6-Bisphosphate Aldolase transfected in Escherichia coli BL21 (DE3) at 50 uM incubated for 3 mins in presence of NADH by spectrophotometric analysis relative to control.
Data set [8] relates to Candida albicans. In words: Binding affinity to Candida albicans Fructose-1,6-Bisphosphate Aldolase assessed as Kinact incubated for 12 to 40 mins by NADH-linked enzymatic assay. The settings on record: time 12-40 min.
Data set [9] relates to Candida albicans. The data set can be described thus: Binding affinity to Candida albicans Fructose-1,6-Bisphosphate Aldolase assessed as ratio of kinact/Ki incubated for 12 to 40 mins by NADH-linked enzymatic assay. The settings on record: time 12-40 min.
Data set [10] is described as follows: Binding affinity to Candida albicans Fructose-1,6-Bisphosphate Aldolase assessed as inhibition constant incubated for 12 to 40 mins by NADH-linked enzymatic assay.
The subject of data set [11] is Candida albicans. In words: Antibiofilm activity against azole resistant Candida albicans 0304103 assessed as inhibition of biofilm formation by XTT assay. Type of data set: functional, organism-based. The settings on record: dose 0-64 µg/ml. For orientation: Tetrazolium assays rely on reduction of a dye to a coloured formazan, in cell work by metabolically active cells.

For data set [12], the system named is Candida albicans. In words: Antifungal activity against azole-resistant Candida albicans 030410 assessed as inhibition of fungal filamentation by measuring reduction in yeast-hypha transition at 32 ug/ml by microscopic analysis. Type of data set: functional, organism-based. To be noted: dose 32.0 µg/ml.

The term MIC80 denotes the lowest concentration that inhibits either 80% of growth or 80% of the strains tested, depending on the study. A word on the IC50: it is the concentration that gives 50% inhibition. With `Cc1ccc(-n2[se]c3ccccc3c2=O)cc1`, the MIC80 stood at 4 µg/mL (≈ 13.9 µM) in the data set with Candida albicans [1], 2 µg/mL (≈ 6.94 µM) against Candida albicans [2], 4 µg/mL (≈ 13.9 µM) in the data set with Candida albicans [4] and 2 µg/mL (≈ 6.94 µM) against Candida albicans [5]. In addition, the figures for the IC50 in data set [3] and in data set [6] were above 32000 nM and 13.3 nM, respectively.
The inhibition is the relative decrease from the control value, in per cent. Take `CC(=O)Nc1ccc(S(=O)(=O)n2sc3ccccc3c2=O)cc1`: the inhibition with Candida albicans [7] is below 50%. The IC50 in data set [6] is above 50000 nM.
Turning to `O=c1c2ccccc2[se]n1-c1ccc(-c2ccccc2)cc1`, the MIC80 in the data set on Candida albicans [1] is 32 µg/mL (≈ 91.4 µM); against Candida albicans [2], 64 µg/mL (≈ 183 µM); in the data set on Candida albicans [4] it was 64 µg/mL (≈ 183 µM); in the data set with Candida albicans [5], 64 µg/mL (≈ 183 µM). Also, the IC50 in [6] is 60 nM.
`CC(C)C[C@H](NC(=O)[C@H](Cc1ccccc1)NC(=O)c1cnccn1)B(O)O`: the inhibition in the data set on Candida albicans [7] was -0.52%.
As to `O=C(NC1CCCCC1)n1sc2ccccc2c1=O`, the IC50 in data set [6] is 1110 nM.
As for `O=c1c2ccccc2[se]n1-c1ccc(F)cc1F`, the MIC80 was determined as 4 µg/mL (≈ 12.9 µM) with Candida albicans [1], 4 µg/mL (≈ 12.9 µM) in the data set on Candida albicans [2], 4 µg/mL (≈ 12.9 µM) against Candida albicans [4] and 2 µg/mL (≈ 6.45 µM) against Candida albicans [5]. For the same compound, the IC50 in data set [3] was above 32000 nM; in data set [6] it was 84 nM.
One may read the Ki as the dissociation constant of the complex between target and ligand, obtained from inhibition or displacement. Turning to `O=c1c2ccccc2[se]n1-c1ccc(C(F)(F)F)cc1`, the MIC80 in the data set on Candida albicans [1] amounted to 4 µg/mL (≈ 11.7 µM); in the data set with Candida albicans [2] it was 4 µg/mL (≈ 11.7 µM); against Candida albicans [4] it was 8 µg/mL (≈ 23.4 µM); in the data set on Candida albicans [5], 4 µg/mL (≈ 11.7 µM). Further, the Kinact in the data set on Candida albicans [8] is 0.00092 s⁻¹. Moreover, the IC50 is above 32000 nM in [3] and 13 nM in data set [6]. In addition, the Ratio in the data set on Candida albicans [9] was 15.9 M⁻¹ s⁻¹. For the same compound, the Ki in [10] was 58 nM.
On to `CCN(CC)C(=S)SSC(=S)N(CC)CC`, for which the inhibition in the data set on Candida albicans [7] stood at 83%.
For the compound `O=C(O)CCCCC1CCSS1` (stereo not given), the inhibition in the data set on Candida albicans [7] was determined as 80%.
Consider `O=c1c2ccccc2[se]n1-c1ccccn1`, for which the MIC80 was 4 µg/mL (≈ 14.5 µM) with Candida albicans [1], 4 µg/mL (≈ 14.5 µM) with Candida albicans [2], 2 µg/mL (≈ 7.27 µM) in the data set with Candida albicans [4] and 4 µg/mL (≈ 14.5 µM) in the data set with Candida albicans [5]. Moreover, the IC50 in data set [6] came out at 72.7 nM.
Take `O=c1c2ccccc2[se]n1CCc1ccccc1`: the MIC80 was 4 µg/mL (≈ 13.2 µM) against Candida albicans [1], 4 µg/mL (≈ 13.2 µM) in the data set on Candida albicans [2], 4 µg/mL (≈ 13.2 µM) against Candida albicans [4] and 2 µg/mL (≈ 6.62 µM) against Candida albicans [5]. The IC50 in data set [6] was 22.5 nM.
`NC(=O)c1ccc(-n2[se]c3ccccc3c2=O)cc1`: the MIC80 against Candida albicans [1], against Candida albicans [2], in the data set on Candida albicans [4] and with Candida albicans [5] was 64 µg/mL (≈ 202 µM) throughout. For the same compound, in [6], the IC50 is 85 nM.
For `O=C(c1ccccc1)c1ccc(-n2[se]c3ccccc3c2=O)cc1`, the MIC80 in the data set on Candida albicans [1], against Candida albicans [2], with Candida albicans [4] and in the data set with Candida albicans [5] was 4 µg/mL (≈ 10.6 µM) throughout. In addition, in the data set with Candida albicans [11], the Activity result was “Dose-Dependent Effect”. Besides, the IC50 in [6] came to 31 nM. Further, the result with Candida albicans [12] was Active.
Take `O=c1c2ccccc2[se]n1Cc1ccccc1`: the MIC80 turned out to be 2 µg/mL (≈ 6.94 µM) with Candida albicans [1], 4 µg/mL (≈ 13.9 µM) in the data set on Candida albicans [2], 4 µg/mL (≈ 13.9 µM) against Candida albicans [4] and 4 µg/mL (≈ 13.9 µM) in the data set with Candida albicans [5]. Further, in data set [6], the IC50 came to 118 nM.
Turning to `Nc1ccc(-n2[se]c3ccccc3c2=O)cc1`, the MIC80 with Candida albicans [1], in the data set with Candida albicans [2], against Candida albicans [4] and in the data set on Candida albicans [5] was 8 µg/mL (≈ 27.7 µM) throughout. The Kinact in the data set with Candida albicans [8] amounted to 0.00199 s⁻¹. Further, the values for the IC50 in data set [3] and in data set [6] were above 32000 nM and 82.3 nM, respectively. The Ratio in the data set with Candida albicans [9] was 3560 M⁻¹ s⁻¹. The inhibitory constant (Ki) in data set [10] came out at 559 nM.
`O=c1c2ccccc2[se]n1Nc1ccccc1`: the IC50 in data set [6] was found to be 96.3 nM.
For the compound `O=c1c2ccccc2[se]n1-c1ccc(-n2cncn2)cc1`, the MIC80 in the data set on Candida albicans [1] was found to be 8 µg/mL (≈ 23.4 µM); against Candida albicans [2] it was 8 µg/mL (≈ 23.4 µM); against Candida albicans [4] it was 4 µg/mL (≈ 11.7 µM); against Candida albicans [5] it was 8 µg/mL (≈ 23.4 µM). For the same compound, the Kinact in the data set with Candida albicans [8] amounted to 0.00506 s⁻¹. Further, the IC50 in [3] is above 32000 nM; in data set [6], 38 nM. Also, the Ratio with Candida albicans [9] is 10.4 M⁻¹ s⁻¹. The Ki in data set [10] amounted to 486 nM.
With `O=C(O)c1ccc(-n2[se]c3ccccc3c2=O)cc1`, the MIC80 against Candida albicans [1], in the data set with Candida albicans [2], with Candida albicans [4] and in the data set on Candida albicans [5] was 64 µg/mL (≈ 201 µM) each time. The IC50 in [6] worked out at 44.5 nM.
Turning to `O=c1c2ccccc2[se]n1-c1nccs1`, the MIC80 in the data set with Candida albicans [1] was found to be 4 µg/mL (≈ 14.2 µM); against Candida albicans [2], 8 µg/mL (≈ 28.4 µM); against Candida albicans [4], 4 µg/mL (≈ 14.2 µM); in the data set on Candida albicans [5], 8 µg/mL (≈ 28.4 µM). In addition, in [6], the IC50 was determined as 113 nM.
Turning to `N#Cc1ccc(-n2[se]c3ccccc3c2=O)cc1`, the MIC80 in the data set on Candida albicans [1] is 8 µg/mL (≈ 26.7 µM); against Candida albicans [2], 16 µg/mL (≈ 53.5 µM); with Candida albicans [4], 16 µg/mL (≈ 53.5 µM); in the data set with Candida albicans [5], 8 µg/mL (≈ 26.7 µM). The IC50 in data set [6] amounted to 38.9 nM.
For the compound `O=c1c2ccccc2[se]n1-c1ccc(-n2ccnc2)cc1`, the MIC80 in the data set with Candida albicans [1], against Candida albicans [2], against Candida albicans [4] and in the data set on Candida albicans [5] was 4 µg/mL (≈ 11.8 µM) throughout. Also, in the data set with Candida albicans [11], the Activity result is “Dose-Dependent Effect”. In addition, the IC50 in data set [6] is 45.8 nM. Further, the result in the data set on Candida albicans [12] was Active.
